Reference: ChEMBL document CHEMBL3259577, “Antagonists of the kappa opioid receptor” (Bioorg Med Chem Lett, 2014)
Blank lines part the entries; values can stand above or below the compound they belong to. Peptide text beside a SMILES is read from it.

What was measured:
[1] = target: T1, Delta-type opioid receptor (Homo sapiens, UniProt P41143); assay: Inhibition of delta opioid receptor (unknown origin) using SNC-80 by high content imaging beta-arrestin translocation assay
[2] = target: T2, Kappa-type opioid receptor (Homo sapiens, UniProt P41145); assay: Agonist activity at human cloned kappa opioid receptor expressed in CHO cells assessed as stimulation of [35S]-GTP[gammaS] binding; assay type: functional, cell-based
Mu-type opioid receptor [3] = target: T3, Mu-type opioid receptor (Homo sapiens, UniProt P35372); assay: Agonist activity at human cloned mu opioid receptor expressed in CHO cells assessed as stimulation of [35S]-GTP[gammaS] binding; assay type: cell-based
[4] = target: T1, Delta-type opioid receptor; assay: Agonist activity at human cloned delta opioid receptor expressed in CHO cells assessed as stimulation of [35S]-GTP[gammaS] binding; assay type: functional, cell-based
[5] = target: Mu-type opioid receptor (Cavia porcellus) (UniProt P97266); assay: Antagonist activity at mu opioid receptor in guinea pig caudate assessed as inhibition of DAMGO-stimulated [35S]-GTP[gammaS] binding; assay type: functional
Cavia porcellus = species: Cavia porcellus; assay: Antagonist activity at delta opioid receptor in guinea pig caudate assessed as inhibition of SNC-80-stimulated [35S]-GTP[gammaS] binding
[6] = target: Kappa-type opioid receptor (Cavia porcellus) (UniProt P41144)
Mu-type opioid receptor [7] = target: T3, Mu-type opioid receptor; assay: Inhibition of mu opioid receptor (unknown origin) using DAMGO by high content imaging beta-arrestin translocation assay
[8] = target: T2, Kappa-type opioid receptor; assay: Inhibition of kappa opioid receptor (unknown origin) using dynorphin A by DiscoveryRx b-arrestin PathHunter assay
[9] = target: T2, Kappa-type opioid receptor; assay: Inhibition of kappa opioid receptor (unknown origin) using dynorphin A by high content imaging beta-arrestin translocation assay
Mu-type opioid receptor [10] = target: T3, Mu-type opioid receptor; assay: Antagonist activity at human cloned mu opioid receptor expressed in CHO cells assessed as inhibition of DAMGO-stimulated [35S]-GTP[gammaS] binding; assay type: cell-based
[11] = target: T2, Kappa-type opioid receptor; assay: Antagonist activity at human cloned kappa opioid receptor expressed in CHO cells assessed as inhibition of Dynorphin A-stimulated [35S]-GTP[gammaS] binding; assay type: functional, cell-based
Mus musculus = species: Mus musculus; assay: Antinociceptive activity in mouse assessed as reversal of U50488-induced withdrawl latencies; assay type: functional
[12] = target: T2, Kappa-type opioid receptor; assay: Antagonist activity at human cloned kappa opioid receptor expressed in CHO cells assessed as inhibition of U50488-stimulated [35S]-GTP[gammaS] binding; assay type: functional, cell-based
[13] = target: T2, Kappa-type opioid receptor; assay: Displacement of [3H]diprenorphine from kappa opioid receptor (unknown origin) expressed in CHO cells membranes; assay type: cell membranes
Mu-type opioid receptor [14] = target: T3, Mu-type opioid receptor; assay: Displacement of [3H]diprenorphine from mu opioid receptor (unknown origin) expressed in CHO cells membranes; assay type: cell membranes
[15] = target: T1, Delta-type opioid receptor; assay: Displacement of [3H]diprenorphine from delta opioid receptor (unknown origin) expressed in CHO cells membranes; assay type: cell membranes
[16] = target: Kappa-type opioid receptor (Cavia porcellus, UniProt P41144); assay: Antagonist activity at kappa opioid receptor in guinea pig ileum assessed as inhibition of U50488-stimulated [35S]-GTP[gammaS] binding; assay type: functional, tissue-based; settings: read-out: pA2 (converted)
Mu-type opioid receptor [17] = target: Mu-type opioid receptor (Cavia porcellus, UniProt P97266); assay: Antagonist activity at mu opioid receptor in guinea pig ileum assessed as inhibition of DAMGO-stimulated [35S]-GTP[gammaS] binding; assay type: functional, tissue-based; settings: read-out: pA2 (converted)
[18] = target: 5-hydroxytryptamine receptor 2B (Homo sapiens, UniProt P41595); assay: Binding affinity to 5-HT2B receptor (unknown origin)
Histamine H1 receptor = Histamine H1 receptor (Homo sapiens, UniProt P35367); assay: Binding affinity to histamine H1 receptor (unknown origin)
[19] = target: Muscarinic acetylcholine receptor M1 (Homo sapiens, UniProt P11229); assay: Binding affinity to muscarinic M1 receptor (unknown origin)
[20] = target: Muscarinic acetylcholine receptor M2 (Homo sapiens, UniProt P08172); assay: Binding affinity to muscarinic M2 receptor (unknown origin)
[21] = target: Muscarinic acetylcholine receptor M3 (Homo sapiens, UniProt P20309); assay: Binding affinity to muscarinic M3 receptor (unknown origin)
[22] = target: Muscarinic acetylcholine receptor M4 (Homo sapiens, UniProt P08173); assay: Binding affinity to muscarinic M4 receptor (unknown origin)
[23] = target: Sodium-dependent noradrenaline transporter (Homo sapiens, UniProt P23975); assay: Binding affinity to NET (unknown origin)
[24] = target: Sigma non-opioid intracellular receptor 1 (Homo sapiens, UniProt Q99720); assay: Binding affinity to sigma-1 receptor (unknown origin)
[25] = Drug metabolism in human liver microsomes assessed as compound remaining after 1 hr; assay type: ADME; settings: read-out: Drug metabolism
[26] = target: Alpha-2C adrenergic receptor (Homo sapiens, UniProt P18825); assay: Binding affinity to adrenergic alpha2C receptor (unknown origin)
[27] = target: Kappa-type opioid receptor (Rattus norvegicus) (UniProt P34975); assay: Displacement of [3H]CI977 from rat forebrain OPRK
[28] = target: Mu-type opioid receptor (Rattus norvegicus) (UniProt P33535); assay: Displacement of [3H]DAMGO from rat forebrain OPRM
[29] = target: Kappa-type opioid receptor (Rattus norvegicus) (UniProt P34975); assay: Displacement of [3H]CI977 from rat forebrain OPRK assessed as maximal binding after 30 mins
Rattus norvegicus = assay: Reduction in spiradoline-induced sc dosed rat plasma prolactin levels; assay type: functional; settings: read-out: ID50 (the source's name)

T2 sequence (P41145 whole entry): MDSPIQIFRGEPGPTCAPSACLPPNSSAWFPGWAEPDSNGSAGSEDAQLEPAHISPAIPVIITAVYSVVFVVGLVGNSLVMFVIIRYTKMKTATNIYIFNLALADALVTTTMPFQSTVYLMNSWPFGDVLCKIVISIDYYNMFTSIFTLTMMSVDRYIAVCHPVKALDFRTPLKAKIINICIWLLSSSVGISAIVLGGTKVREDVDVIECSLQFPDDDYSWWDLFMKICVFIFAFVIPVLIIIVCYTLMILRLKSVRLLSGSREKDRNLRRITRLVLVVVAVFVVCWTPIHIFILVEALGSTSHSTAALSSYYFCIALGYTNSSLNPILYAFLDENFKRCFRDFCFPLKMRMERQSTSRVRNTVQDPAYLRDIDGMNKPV
T1 sequence (P41143 whole entry): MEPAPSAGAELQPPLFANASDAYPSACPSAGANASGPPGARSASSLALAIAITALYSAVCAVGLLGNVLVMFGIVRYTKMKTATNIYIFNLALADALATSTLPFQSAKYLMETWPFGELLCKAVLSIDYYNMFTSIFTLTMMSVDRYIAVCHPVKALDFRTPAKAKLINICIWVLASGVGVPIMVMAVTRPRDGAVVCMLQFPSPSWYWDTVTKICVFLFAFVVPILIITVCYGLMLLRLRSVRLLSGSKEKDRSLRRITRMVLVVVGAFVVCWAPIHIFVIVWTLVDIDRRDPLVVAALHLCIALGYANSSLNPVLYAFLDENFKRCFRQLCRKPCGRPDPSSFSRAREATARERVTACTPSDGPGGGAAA
T3 sequence (P35372 whole entry): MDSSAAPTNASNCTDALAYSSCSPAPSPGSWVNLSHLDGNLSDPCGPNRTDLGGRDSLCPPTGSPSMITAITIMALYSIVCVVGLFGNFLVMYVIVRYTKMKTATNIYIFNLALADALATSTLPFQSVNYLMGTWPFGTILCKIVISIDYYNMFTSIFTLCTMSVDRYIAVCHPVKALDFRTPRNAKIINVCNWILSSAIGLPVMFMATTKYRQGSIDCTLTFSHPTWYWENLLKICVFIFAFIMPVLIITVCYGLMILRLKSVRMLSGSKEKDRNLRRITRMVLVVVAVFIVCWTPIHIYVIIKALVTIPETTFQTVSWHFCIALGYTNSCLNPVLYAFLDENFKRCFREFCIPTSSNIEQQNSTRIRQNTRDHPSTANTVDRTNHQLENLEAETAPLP
Muscarinic acetylcholine receptor M2, sequence (P08172 whole entry): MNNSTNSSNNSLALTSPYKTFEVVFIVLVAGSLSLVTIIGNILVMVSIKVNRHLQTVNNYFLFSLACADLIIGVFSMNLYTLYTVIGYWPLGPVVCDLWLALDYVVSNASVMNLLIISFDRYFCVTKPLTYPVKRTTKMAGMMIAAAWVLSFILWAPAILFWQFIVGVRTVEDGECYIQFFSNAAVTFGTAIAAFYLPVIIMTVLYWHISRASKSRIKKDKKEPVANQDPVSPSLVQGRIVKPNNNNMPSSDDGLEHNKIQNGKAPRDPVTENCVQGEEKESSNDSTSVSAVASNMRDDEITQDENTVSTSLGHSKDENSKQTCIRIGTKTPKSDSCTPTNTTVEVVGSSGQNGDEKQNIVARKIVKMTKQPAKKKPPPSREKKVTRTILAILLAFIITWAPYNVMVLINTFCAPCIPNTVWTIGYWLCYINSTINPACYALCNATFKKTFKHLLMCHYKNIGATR
Kappa-type opioid receptor (Cavia porcellus), sequence (P41144 whole entry): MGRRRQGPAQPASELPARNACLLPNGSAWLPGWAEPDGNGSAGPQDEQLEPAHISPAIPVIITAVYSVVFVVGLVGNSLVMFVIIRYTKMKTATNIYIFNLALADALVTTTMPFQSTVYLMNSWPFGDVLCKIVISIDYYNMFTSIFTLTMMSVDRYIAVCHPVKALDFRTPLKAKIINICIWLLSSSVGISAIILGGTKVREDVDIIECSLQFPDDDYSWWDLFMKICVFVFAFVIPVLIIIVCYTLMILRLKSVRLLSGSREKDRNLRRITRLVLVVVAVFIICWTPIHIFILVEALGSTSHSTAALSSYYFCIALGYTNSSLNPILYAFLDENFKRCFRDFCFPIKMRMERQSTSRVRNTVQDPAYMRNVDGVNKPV
Kappa-type opioid receptor (Cavia porcellus, UniProt P41144), sequence (P41144 whole entry): as above
Mu-type opioid receptor (Cavia porcellus, UniProt P97266), sequence (P97266 whole entry): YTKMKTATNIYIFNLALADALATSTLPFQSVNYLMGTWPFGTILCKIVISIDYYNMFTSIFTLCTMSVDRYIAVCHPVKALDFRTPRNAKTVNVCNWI
Mu-type opioid receptor (Cavia porcellus), sequence (P97266 whole entry): as above
Muscarinic acetylcholine receptor M4, sequence (P08173 whole entry): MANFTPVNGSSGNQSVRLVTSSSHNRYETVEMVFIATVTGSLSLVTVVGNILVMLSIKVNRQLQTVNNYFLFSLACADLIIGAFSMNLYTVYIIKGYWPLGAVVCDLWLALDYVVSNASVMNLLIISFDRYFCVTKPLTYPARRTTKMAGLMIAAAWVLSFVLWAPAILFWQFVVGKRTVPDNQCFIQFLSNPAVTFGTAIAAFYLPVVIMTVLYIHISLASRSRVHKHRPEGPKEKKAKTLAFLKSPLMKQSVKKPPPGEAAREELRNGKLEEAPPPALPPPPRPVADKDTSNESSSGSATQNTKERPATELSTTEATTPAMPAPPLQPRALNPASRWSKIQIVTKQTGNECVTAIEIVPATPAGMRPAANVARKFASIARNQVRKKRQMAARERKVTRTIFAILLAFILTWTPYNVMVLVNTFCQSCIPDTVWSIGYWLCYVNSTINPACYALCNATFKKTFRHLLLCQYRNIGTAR
Kappa-type opioid receptor (Rattus norvegicus), sequence (P34975 whole entry): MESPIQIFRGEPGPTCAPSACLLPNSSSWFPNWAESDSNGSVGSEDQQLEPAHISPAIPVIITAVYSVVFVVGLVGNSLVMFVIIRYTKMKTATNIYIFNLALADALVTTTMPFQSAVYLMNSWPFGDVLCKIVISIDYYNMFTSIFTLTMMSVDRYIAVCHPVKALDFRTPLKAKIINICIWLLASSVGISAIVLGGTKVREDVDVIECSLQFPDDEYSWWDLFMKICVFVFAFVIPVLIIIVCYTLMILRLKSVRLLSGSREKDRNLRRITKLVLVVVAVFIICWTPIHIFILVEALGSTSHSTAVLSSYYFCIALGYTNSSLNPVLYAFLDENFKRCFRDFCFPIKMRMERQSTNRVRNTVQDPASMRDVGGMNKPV
Sigma non-opioid intracellular receptor 1, sequence (Q99720 whole entry): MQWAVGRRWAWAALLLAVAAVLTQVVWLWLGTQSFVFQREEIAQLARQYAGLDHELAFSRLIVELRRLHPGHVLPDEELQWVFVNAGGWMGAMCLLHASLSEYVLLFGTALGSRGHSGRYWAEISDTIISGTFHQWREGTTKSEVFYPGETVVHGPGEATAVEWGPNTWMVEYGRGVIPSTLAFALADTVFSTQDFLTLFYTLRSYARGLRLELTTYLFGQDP
Muscarinic acetylcholine receptor M3, sequence (P20309 whole entry): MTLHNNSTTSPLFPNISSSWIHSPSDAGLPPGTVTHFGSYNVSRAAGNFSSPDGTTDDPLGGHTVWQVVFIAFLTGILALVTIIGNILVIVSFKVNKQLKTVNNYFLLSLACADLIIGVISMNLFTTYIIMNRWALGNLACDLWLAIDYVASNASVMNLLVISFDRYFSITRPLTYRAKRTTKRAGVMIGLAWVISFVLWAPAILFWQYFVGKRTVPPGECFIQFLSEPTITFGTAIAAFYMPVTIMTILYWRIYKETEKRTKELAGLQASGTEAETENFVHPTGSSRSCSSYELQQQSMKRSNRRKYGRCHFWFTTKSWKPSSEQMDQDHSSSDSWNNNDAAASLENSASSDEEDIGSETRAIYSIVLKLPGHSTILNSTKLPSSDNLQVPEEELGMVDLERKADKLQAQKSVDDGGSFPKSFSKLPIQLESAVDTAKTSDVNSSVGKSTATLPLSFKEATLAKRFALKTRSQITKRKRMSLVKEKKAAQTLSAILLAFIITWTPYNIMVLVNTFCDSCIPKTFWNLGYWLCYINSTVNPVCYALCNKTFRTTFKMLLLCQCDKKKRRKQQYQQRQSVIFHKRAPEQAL
Muscarinic acetylcholine receptor M1, sequence (P11229 whole entry): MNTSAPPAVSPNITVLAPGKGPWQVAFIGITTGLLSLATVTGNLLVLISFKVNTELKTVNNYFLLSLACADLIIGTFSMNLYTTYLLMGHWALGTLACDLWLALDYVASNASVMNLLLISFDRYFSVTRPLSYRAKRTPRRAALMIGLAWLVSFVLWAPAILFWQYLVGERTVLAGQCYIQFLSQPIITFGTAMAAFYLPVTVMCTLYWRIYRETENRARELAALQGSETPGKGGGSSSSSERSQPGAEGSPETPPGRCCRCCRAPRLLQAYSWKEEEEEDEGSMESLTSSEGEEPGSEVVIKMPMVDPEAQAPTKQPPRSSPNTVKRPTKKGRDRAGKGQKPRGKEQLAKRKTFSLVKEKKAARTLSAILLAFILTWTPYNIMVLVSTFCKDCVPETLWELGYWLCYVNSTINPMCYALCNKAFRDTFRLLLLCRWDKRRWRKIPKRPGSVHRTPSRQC
Sodium-dependent noradrenaline transporter, sequence (P23975 whole entry): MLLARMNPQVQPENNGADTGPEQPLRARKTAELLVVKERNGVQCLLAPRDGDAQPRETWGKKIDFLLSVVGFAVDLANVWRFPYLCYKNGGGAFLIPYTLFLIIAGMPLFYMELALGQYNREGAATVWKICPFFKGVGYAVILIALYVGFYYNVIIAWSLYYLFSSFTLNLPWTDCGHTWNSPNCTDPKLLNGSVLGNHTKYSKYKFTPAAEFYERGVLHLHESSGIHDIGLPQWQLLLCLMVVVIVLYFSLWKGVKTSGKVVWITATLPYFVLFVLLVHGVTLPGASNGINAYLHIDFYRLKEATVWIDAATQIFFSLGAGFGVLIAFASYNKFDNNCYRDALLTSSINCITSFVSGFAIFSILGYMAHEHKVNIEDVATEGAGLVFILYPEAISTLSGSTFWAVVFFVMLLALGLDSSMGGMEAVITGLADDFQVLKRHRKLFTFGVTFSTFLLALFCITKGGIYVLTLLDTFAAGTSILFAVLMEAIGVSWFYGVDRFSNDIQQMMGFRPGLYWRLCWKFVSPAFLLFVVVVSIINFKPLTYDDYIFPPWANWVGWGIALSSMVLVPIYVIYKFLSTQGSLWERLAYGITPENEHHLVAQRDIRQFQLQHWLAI

- IC50 [1]: > 32 µM
Compound: CCN(CCNC(=O)c1ccc(CNS(=O)(=O)c2ccc(C)cc2)cc1)Cc1ccccc1

Compound: CC1CN(CCCc2ccccc2)C2C[C@H](NCC3CC3)CC1(c1cccc(O)c1)C2 (stereo partly specified)
- EC50 [2]: > 5 µM
- EC50 (Mu-type opioid receptor [3]): 130 µM
- EC50 [4]: > 5 µM

Compound: CC(C)[C@@H](CN1CC[C@@](C)(c2cccc(O)c2)[C@@H](C)C1)NC(=O)[C@H](N)Cc1ccc(O)cc1
- Ke [5]: 12 nM
- Ke (Cavia porcellus): 334 nM
- Ke [6]: 44.6 nM

- IC50 (Mu-type opioid receptor [7]): > 32 µM
- IC50 [8]: 1.95 µM
- IC50 [9]: 1.3 µM
- IC50 [1]: > 32 µM
Compound: COc1ccc(N2CCN(CCCNC(=O)Cn3c(=O)c4cccn4c4cccnc43)CC2)cc1

Compound: CC(C)CC(=O)N1Cc2cc(O)ccc2C[C@@H]1C(=O)N[C@H](CN1CC[C@@](C)(c2cccc(O)c2)[C@@H](C)C1)C(C)C
- Ke [5]: 29 nM
- Ke (Cavia porcellus): 628 nM
- Ke [6]: 0.16 nM

- IC50 [8]: 0.19 µM
- IC50 [9]: 0.004 µM
- IC50 [1]: > 32 µM
Compound: COc1ccc(N2CCN(CCCNC(=O)Cn3c(=O)c4cccn4c4c(C)ccnc43)CC2)c(OC)c1

Compound: C[C@@H]1NC(=O)[C@H](Cc2c[nH]c3ccccc23)NC(=O)[C@H](Cc2ccccc2)NC(=O)[C@@H]2CCCN2C1=O (cyclo(APFW))
- Ke (Mu-type opioid receptor [10]): 7.3 nM
- Kb [11]: 0.0026 µM
- Time (Mus musculus): <18 h

Compound: CC1CN(CCCc2ccccc2)C2C[C@H](N)CC1(c1cccc(O)c1)C2 (stereo partly specified)
- Ke [12]: 10.1 nM
- EC50 [2]: > 5 µM
- EC50 (Mu-type opioid receptor [3]): 19.5 µM
- EC50 [4]: 7.5 µM

- IC50 (Mu-type opioid receptor [7]): > 32 µM
- IC50 [1]: > 32 µM
Compound: COc1ccc(N2CCN(CCCNC(=O)Cn3c(=O)c4cccn4c4ccccc43)CC2)cc1

Compound: CCOC(=O)C(CN1CC[C@@](C)(c2cccc(O)c2)[C@@H](C)C1)OC(=O)[C@H]1Cc2ccc(O)cc2CN1 (stereo partly specified)
- Ki [13]: 0.00172 µM
- Ki (Mu-type opioid receptor [14]): 0.0265 µM
- Ki [15]: 1.06 µM
- Kb [16]: 0.0024 µM
- Kb (Mu-type opioid receptor [17]): < 5.01 µM

- IC50 (Mu-type opioid receptor [7]): > 24 µM
- IC50 [1]: > 32 µM
- Ki [18]: < 1 µM
- Ki (Histamine H1 receptor): < 1 µM
- Ki [19]: < 1 µM
- Ki [20]: < 1 µM
- Ki [21]: < 1 µM
- Ki [22]: < 1 µM
- Ki [23]: < 1 µM
- Ki [24]: < 1 µM
- remaining at 1 h [25]: 0.07%
- Ki [26]: < 1 µM
Compound: Cc1ccc(S(=O)(=O)NCc2ccc(C(=O)NCCN(Cc3ccccc3)C(C)C)cc2)cc1

Compound: C[C@H]1CN(CCOC(=O)[C@H]2Cc3ccc(O)cc3CN2)CC[C@@]1(C)c1cccc(O)c1
- Ki [13]: 0.159 µM
- Ki (Mu-type opioid receptor [14]): 0.186 µM
- Ki [15]: 0.475 µM
- Kb [16]: 0.135 µM
- Kb (Mu-type opioid receptor [17]): 0.0977 µM

Compound: CC(C)CNCc1ccc(-c2ccccc2S(=O)(=O)N2CCCC2)cc1 [PF-04455242]
- ID50 [27]: 2 mg/kg
- ID50 [28]: 8.6 mg/kg
- Activity [29]: 82%
- ED50 (Rattus norvegicus): 2.3 mg/kg

Compound: C[C@@H]1NC(=O)[C@@H]2CCCN2C(=O)[C@H](Cc2ccccc2)NC(=O)[C@H](Cc2c[nH]c3ccccc23)NC1=O (cyclo(AWFP))
- Time (Mus musculus): <18 h

Compound: CC(C)[C@@H](CN1CC[C@@](C)(c2cccc(O)c2)[C@@H](C)C1)NC(=O)[C@@H]1Cc2ccc(O)cc2CN1
- Ke (Cavia porcellus): 327 nM

- IC50 [8]: 0.06 µM
- IC50 [9]: 0.03 µM
- IC50 [1]: > 32 µM
- Ki [20]: < 1 µM
- Ki [21]: < 1 µM
- Ki [22]: < 1 µM
- Ki [24]: < 1 µM
Compound: Cc1ccc(S(=O)(=O)NCc2ccc(C(=O)NCCN(Cc3ccccc3)C(C)(C)C)cc2)cc1
